In PMC8945814, “The Pyrazolo[3,4-d]Pyrimidine Derivative Si306 Encapsulated into Anti-GD2-Immunoliposomes as Therapeutic Treatment of Neuroblastoma” (Biomedicines, 2022):

How the values were obtained:
HTLA-230 = assay: MTT cytotoxicity assay; type: cell-based; conditions: Homo sapiens, 24 h exposure, 96 h total, ± S.D.
Description: (§1) Cytotoxicity experiments were performed to evaluate the effectiveness of Si306, either free (dissolved in DMSO) or encapsulated into untargeted and GD2-targeted liposomes. Briefly, IMR-32, HTLA-230 and SH-SY5Y cells were seeded in 96-well plates (8 × 10^3 cells/well). Human fibroblasts were used as GD2-negative healthy control cells (5 × 10^3 cells/well). The day after seeding, cells were incubated with increasing concentration of Si306 (0.1, 1.0, 10.0 and, 100.0 μM) either free or liposomes-encapsulated, for 24 h at 37 °C. Cells were then washed twice with PBS before replacing them with fresh complete medium and incubating for an additional 72 h (total incubation time equal to 96 h). At the end of the incubation, the MTT (Sigma) assay was performed. The tetrazolium dye was added, then plates were incubated for 3–4 h at 37 °C; formazan crystals were then dissolved in acid isopropanol, and then the optical density of the stained solution was quantified by the use of a Multiskan™ FC Microplate Photometer (Thermo Fisher Scientific Italia, Monza, Italy) at the dual wavelengths of 570 and 650 nm.

IMR-32 = assay: MTT cytotoxicity assay; type: cell-based; conditions: Homo sapiens, 24 h exposure, 96 h total, ± S.D.
Description: as §1

SH-SY5Y = assay: MTT cytotoxicity assay; type: cell-based; conditions: Homo sapiens, 24 h exposure, 96 h total, ± S.D.
Description: as §1

c-Src tyrosine kinase = conditions: cited from earlier work
[1] = cited from earlier work
non-tumoral cells = conditions: cited from earlier work
[2] = tested on: subcutaneous NB animal model; conditions: oral administration; cited from earlier work
[3] = parameters: method as in PMID 31248184; conditions: 25 mg/kg, free compound in vivo; cited from earlier work

Compound `ClC(Cn1ncc2c(Nc3cccc(Br)c3)nc(SCCN3CCOCC3)nc21)c1ccccc1` (centres unmarked) [Si306] has an IC50 (HTLA-230) of 2.9 ± 0.3 µM, an IC50 (IMR-32) of 5.9 ± 1.4 µM and an IC50 (SH-SY5Y) of 19.6 ± 0.7 µM. For the same compound, the Ki (c-Src tyrosine kinase) was 0.13 µM, the water solubility [1] was “low water solubility” and the “activity in non-tumoral cells” value (non-tumoral cells) was “negligible activity”. The tumor growth [2] was “delay of tumor growth” and the signs of toxicity [3] was “without signs of toxicity”.
